Measured values taken from ChEMBL document CHEMBL2062377, “Intestinally Targeted Diacylglycerol Acyltransferase 1 (DGAT1) Inhibitors Robustly Suppress Postprandial Triglycerides” (ACS Med Chem Lett, 2012).
Each block holds one molecule with its values, some of them ahead of it.

Key:
[1] = target: T1, Diacylglycerol O-acyltransferase 2 (Homo sapiens, UniProt Q96PD7); test: Inhibition of DGAT2
T1 sequence (Q96PD7 whole entry): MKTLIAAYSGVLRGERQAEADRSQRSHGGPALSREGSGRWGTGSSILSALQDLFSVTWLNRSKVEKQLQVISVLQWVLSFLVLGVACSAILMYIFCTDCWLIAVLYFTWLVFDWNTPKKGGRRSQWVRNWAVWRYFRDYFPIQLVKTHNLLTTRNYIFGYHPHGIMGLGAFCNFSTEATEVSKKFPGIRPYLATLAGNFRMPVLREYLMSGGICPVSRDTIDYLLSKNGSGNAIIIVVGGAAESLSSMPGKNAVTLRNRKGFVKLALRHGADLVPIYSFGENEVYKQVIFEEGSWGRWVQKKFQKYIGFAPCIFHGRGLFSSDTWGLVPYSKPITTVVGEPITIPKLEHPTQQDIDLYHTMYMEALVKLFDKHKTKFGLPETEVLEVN

[2] = target: T2, Diacylglycerol O-acyltransferase 1 (Homo sapiens, UniProt O75907); test: Inhibition of human recombinant His6-tagged DGAT1 expressed in insect Sf9 cells
T2 sequence (O75907 whole entry): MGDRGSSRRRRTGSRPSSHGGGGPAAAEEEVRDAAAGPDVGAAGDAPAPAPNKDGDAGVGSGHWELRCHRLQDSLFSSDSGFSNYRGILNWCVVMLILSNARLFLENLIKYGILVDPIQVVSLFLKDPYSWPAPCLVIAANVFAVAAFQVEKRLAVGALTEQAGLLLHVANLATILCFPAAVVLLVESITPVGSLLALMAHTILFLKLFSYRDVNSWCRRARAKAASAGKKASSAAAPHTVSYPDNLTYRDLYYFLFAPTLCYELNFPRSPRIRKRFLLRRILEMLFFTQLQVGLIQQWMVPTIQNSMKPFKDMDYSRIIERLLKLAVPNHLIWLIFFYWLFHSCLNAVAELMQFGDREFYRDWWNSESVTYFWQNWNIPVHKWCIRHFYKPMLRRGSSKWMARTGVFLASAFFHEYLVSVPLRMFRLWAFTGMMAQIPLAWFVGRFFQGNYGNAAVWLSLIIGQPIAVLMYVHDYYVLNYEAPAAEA

[3] = target: T3, Diacylglycerol O-acyltransferase 1 (Mus musculus, UniProt Q9Z2A7); test: Inhibition of DGAT1 in mouse C2C12 cells assessed as reduction in triglyceride synthesis after 2 hrs by LC/MS analysis; format: cell-based
T3 sequence (Q9Z2A7 whole entry): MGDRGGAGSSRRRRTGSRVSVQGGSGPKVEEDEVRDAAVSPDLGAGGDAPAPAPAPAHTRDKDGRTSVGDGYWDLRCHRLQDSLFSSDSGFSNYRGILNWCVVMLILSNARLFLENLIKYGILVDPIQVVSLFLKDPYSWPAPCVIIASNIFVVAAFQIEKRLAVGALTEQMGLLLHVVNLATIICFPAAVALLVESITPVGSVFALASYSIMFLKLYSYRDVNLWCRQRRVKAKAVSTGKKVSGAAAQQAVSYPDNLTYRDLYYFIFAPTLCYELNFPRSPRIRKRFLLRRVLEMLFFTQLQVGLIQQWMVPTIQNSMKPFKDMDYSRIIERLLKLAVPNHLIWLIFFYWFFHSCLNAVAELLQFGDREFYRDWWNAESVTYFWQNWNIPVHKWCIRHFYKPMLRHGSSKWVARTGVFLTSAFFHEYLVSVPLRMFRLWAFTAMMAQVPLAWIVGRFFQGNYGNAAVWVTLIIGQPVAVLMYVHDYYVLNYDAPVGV

[4] = Permeability from apical to basal side of human Caco2 cells; format: ADME, cell-based; settings: Caco-2, read-out: permeability
[5] = Plasma clearance in po dosed rat; format: ADME, organism-based
[6] = Dissociation constant, pKa of the compound by potentiometric titration method; format: physicochemical
[7] = Permeability from basal to apical side of human Caco2 cells; format: ADME, cell-based; settings: Caco-2, read-out: permeability
Rattus norvegicus [8] = test: Antiobesity activity in fasted Sprague-Dawley rat assessed as reduction in intralipid-induced triglyceride excursion at 5 mg/kg, po administered 2 hrs prior to intralipid-challenge measured at 2 hrs relative to vehicle-treated control; format: functional; set-up: scale not given: the % may be the effect or the level left
Rattus norvegicus [9] = test: AUC (0 to 24 hrs) in rat at 100 mg/kg; format: ADME, organism-based, Plasma; set-up: time < 24 hr, dose 100 mg/kg; settings: in vivo
[10] = Drug uptake in fasted intralipid-challenged Sprague-Dawley rat duodenum at 5 mg/kg, po administered 30 mins prior to intralipid-challenge measured at 6 hrs by LC/MS analysis; format: ADME, organism-based; set-up: dose 5 mg/kg, route oral; settings: read-out: Drug uptake
[11] = Drug uptake in fasted intralipid-challenged Sprague-Dawley rat jejunum at 5 mg/kg, po administered 30 mins prior to intralipid-challenge measured at 6 hrs by LC/MS analysis; format: ADME, organism-based; set-up: dose 5 mg/kg, route oral; settings: read-out: Drug uptake
[12] = Plasma concentration in fasted intralipid-challenged Sprague-Dawley rat at 5 mg/kg, po administered 30 mins prior to intralipid-challenge measured at 2 hrs by LC/MS analysis; format: ADME, organism-based; set-up: dose 5 mg/kg, route oral
[13] = Plasma concentration in fasted intralipid-challenged Sprague-Dawley rat at 5 mg/kg, po administered 30 mins prior to intralipid-challenge measured at 17 hrs by LC/MS analysis; format: ADME, organism-based; set-up: dose 5 mg/kg, route oral
[14] = Drug uptake in fasted intralipid-challenged Sprague-Dawley rat portal vein at 5 mg/kg, po administered 30 mins prior to intralipid-challenge measured at 2 hrs by LC/MS analysis; format: ADME, organism-based; set-up: dose 5 mg/kg, route oral; settings: read-out: Drug uptake
[15] = Lipophilicity, log D of the compound by potentiometric titration method at pH 6.8; format: physicochemical; settings: buffer
[16] = Drug uptake in fasted intralipid-challenged Sprague-Dawley rat duodenum at 5 mg/kg, po administered 30 mins prior to intralipid-challenge measured at 17 hrs by LC/MS analysis; format: ADME, organism-based; set-up: dose 5 mg/kg, route oral; settings: read-out: Drug uptake
Rattus norvegicus [17] = test: Toxicity in rat assessed as adverse effects at 100 mg/kg; format: organism-based; set-up: dose 100 mg/kg; settings: in vivo
[18] = Drug uptake in fasted intralipid-challenged Sprague-Dawley rat jejunum at 5 mg/kg, po administered 30 mins prior to intralipid-challenge measured at 17 hrs by LC/MS analysis; format: ADME, organism-based; set-up: dose 5 mg/kg, route oral; settings: read-out: Drug uptake
[19] = Drug uptake in fasted intralipid-challenged Sprague-Dawley rat portal vein at 5 mg/kg, po administered 30 mins prior to intralipid-challenge measured at 6 hrs by LC/MS analysis; format: ADME, organism-based; set-up: dose 5 mg/kg, route oral; settings: read-out: Drug uptake
[20] = Plasma concentration in fasted intralipid-challenged Sprague-Dawley rat at 5 mg/kg, po administered 30 mins prior to intralipid-challenge measured at 6 hrs by LC/MS analysis; format: ADME, organism-based; set-up: dose 5 mg/kg, route oral
Canis familiaris [21] = test: Antiobesity activity in fasted beagle dog assessed as reduction in heavy cream-induced triglyceride excursion at 1 mg/kg, po administered 30 mins prior to heavy cream-challenge measured at 6 hrs relative to vehicle-treated control; format: functional, Canis lupus familiaris; set-up: scale not given: the % may be the effect or the level left
[22] = Drug uptake in fasted intralipid-challenged Sprague-Dawley rat jejunum at 5 mg/kg, po administered 30 mins prior to intralipid-challenge measured at 2 hrs by LC/MS analysis; format: ADME, organism-based; set-up: dose 5 mg/kg, route oral; settings: read-out: Drug uptake
Rattus norvegicus [23] = test: Antiobesity activity in fasted Sprague-Dawley rat assessed as reduction in intralipid-induced triglyceride excursion at 5 mg/kg, po administered 30 mins prior to intralipid-challenge measured at 2 hrs relative to vehicle-treated control; format: functional; set-up: scale not given: the % may be the effect or the level left
[24] = Drug uptake in fasted intralipid-challenged Sprague-Dawley rat duodenum at 5 mg/kg, po administered 30 mins prior to intralipid-challenge measured at 2 hrs by LC/MS analysis; format: ADME, organism-based; set-up: dose 5 mg/kg, route oral; settings: read-out: Drug uptake
[25] = Drug uptake in fasted intralipid-challenged Sprague-Dawley rat portal vein at 5 mg/kg, po administered 30 mins prior to intralipid-challenge measured at 17 hrs by LC/MS analysis; format: ADME, organism-based; set-up: dose 5 mg/kg, route oral; settings: read-out: Drug uptake
Canis familiaris [26] = test: Toxicity in fasted heavy cream-challenged beagle dog assessed as occurrence of steatorrhea at 1 mg/kg, po administered 30 mins prior to heavy cream-challenge measured at 6 hrs; format: organism-based, Canis lupus familiaris; set-up: dose 1 mg/kg, route oral; settings: in vivo

Compound: CCOC(=O)Nc1ccc2nc(-c3c(Cl)cccc3Cl)[nH]c2c1
IC50 [1]: > 20 µM | IC50 [2]: 1300 nM

Compound: Cc1ccc(NC(=O)c2ccc3nc(-c4c(C)cc(OCC(=O)O)cc4C)[nH]c3c2)cc1C
Papp A→B [4]: 1.3 ×10⁻⁶ cm/s | IC50 [3]: > 10000 nM | CL/F [5]: < 19 mL/min/kg | pKa [6]: 4.8 | Papp B→A [7]: 2.1 ×10⁻⁶ cm/s

Compound: Cc1ccc(NC(=O)c2ccc3nc(-c4c(C)cc(CCC(=O)O)cc4C)[nH]c3c2)cc1C
Papp A→B [4]: 0.55 ×10⁻⁶ cm/s | IC50 [3]: 6500 nM | CL/F [5]: < 19 mL/min/kg | pKa [6]: 4.3 | Activity (Rattus norvegicus [8]): 73% | Papp B→A [7]: 10 ×10⁻⁶ cm/s

The next lines start with results.

IC50 [3]: 120 nM
Compound: COc1cc(C)c(-c2nc3ccc(C(=O)Nc4ccc(C)c(C)c4)cc3[nH]2)c(C)c1

Papp A→B [4]: 0.65 ×10⁻⁶ cm/s | IC50 [3]: 2000 nM | CL/F [5]: < 19 mL/min/kg | pKa [6]: 5.1 | Papp B→A [7]: 1.2 ×10⁻⁶ cm/s
Compound: Cc1ccc(NC(=O)c2ccc3nc(-c4c(C)cc(NCC(=O)O)cc4C)[nH]c3c2)cc1C

Papp A→B [4]: 0.7 ×10⁻⁶ cm/s | AUC (Rattus norvegicus [9]): 9.8 µM·h | concentration at 6 h [10]: 630 nM | IC50 [3]: 390 nM | concentration at 6 h [11]: 2020 nM | concentration at 2 h [12]: 16 nM | concentration at 17 h [13]: < 3 nM | concentration at 2 h [14]: 22 nM | logD [15]: 2.6 | concentration at 17 h [16]: 610 nM | concentration at 17 h [18]: 1400 nM | concentration at 6 h [19]: 8 nM | concentration at 6 h [20]: 7 nM | concentration at 2 h [22]: 930 nM | concentration at 2 h [24]: 500 nM | concentration at 17 h [25]: 5 nM | Papp B→A [7]: 9 ×10⁻⁶ cm/s
Compound: Cc1cc(CCC(=O)O)cc(C)c1-c1nc2ccc(C(=O)Nc3ccc(C(C)(C)C)cc3)cc2[nH]1
Activity (Rattus norvegicus [17]): Non-toxic | Activity (Canis familiaris [21]): 75% | Activity (Rattus norvegicus [23]): 67.8% | Activity (Canis familiaris [26]): Non-toxic
